Literature values in US10092188B2, “Methods and compositions for identifying subjects at risk of developing stent thrombosis” (VisEn Medical, Inc., priority 2008, dated 2018).

## CY™ 5.5
Absorbance maximum of commercially available fluorochrome
  Absorbance max: 675 nm
Extinction coefficient of commercially available fluorochrome
  εmax: 250,000 M^−1cm^−1
